Paper PMC8930067 (Cardiovascular Research, 2021)
Structures can show the parent of a compound that is named as a salt.

Target: SERCA2a (Rattus norvegicus, UniProt P11507)
Assay: […]-ATP hydrolysis
Type: cell-based
Settings: read-out: % Vmax at 500 nmol/L

Sequence of SERCA2a (P11507 1-997 isoform P11507-2): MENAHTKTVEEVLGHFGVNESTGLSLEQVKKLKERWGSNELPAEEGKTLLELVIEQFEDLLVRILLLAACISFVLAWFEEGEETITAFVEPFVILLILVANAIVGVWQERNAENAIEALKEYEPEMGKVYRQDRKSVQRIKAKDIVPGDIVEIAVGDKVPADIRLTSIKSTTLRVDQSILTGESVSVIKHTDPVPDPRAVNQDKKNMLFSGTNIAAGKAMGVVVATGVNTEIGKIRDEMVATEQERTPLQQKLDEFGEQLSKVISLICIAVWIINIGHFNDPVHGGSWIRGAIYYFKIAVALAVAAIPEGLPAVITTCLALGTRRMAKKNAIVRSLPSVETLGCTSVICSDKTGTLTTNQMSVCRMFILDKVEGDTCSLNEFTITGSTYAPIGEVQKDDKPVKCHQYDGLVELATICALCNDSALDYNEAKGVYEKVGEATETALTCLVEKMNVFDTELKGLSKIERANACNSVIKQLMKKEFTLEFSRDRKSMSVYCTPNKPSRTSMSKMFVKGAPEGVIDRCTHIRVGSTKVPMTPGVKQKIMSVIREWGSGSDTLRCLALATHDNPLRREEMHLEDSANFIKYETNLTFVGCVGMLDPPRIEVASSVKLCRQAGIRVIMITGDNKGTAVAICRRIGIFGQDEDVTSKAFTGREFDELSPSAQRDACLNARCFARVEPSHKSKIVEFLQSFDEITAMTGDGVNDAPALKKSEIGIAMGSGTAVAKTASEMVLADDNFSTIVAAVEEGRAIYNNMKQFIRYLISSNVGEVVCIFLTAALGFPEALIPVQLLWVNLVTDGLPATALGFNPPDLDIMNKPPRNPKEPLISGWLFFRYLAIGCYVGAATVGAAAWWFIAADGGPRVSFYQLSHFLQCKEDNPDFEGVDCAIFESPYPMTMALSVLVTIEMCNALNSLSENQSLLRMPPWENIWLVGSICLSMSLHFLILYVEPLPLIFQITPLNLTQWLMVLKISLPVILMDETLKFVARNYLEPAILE

`C[C@]12CCC(=NOCCN)C[C@@H]1C(=O)C[C@@H]1[C@@H]2CC[C@]2(C)C(=O)CC[C@@H]12` [istaroxime, (E,Z)-3-((2-aminoethoxy)imino)androstane-6,17-dione hydrochloride] was tested, and the activation at 0.5 µM was 25%.
